What was measured:
Type in all cases: in vivo
[1] = test system: Bemisia tabaci (Cotton White Fly); assay: Activity against Bemisia tabaci (cotton white fly), cotton leaf disc spray test; settings: foliar, 144 h, 200 ppm, adults, 6 days after infestation, read-out: activity (mortality and special effects) against Bemisia tabaci
Protocol: Activity Against Bemisia tabaci (Cotton White Fly)
Cotton leaf discs were placed on agar in a 24-well microtiter plate and sprayed with test solutions. After drying, the leaf discs were infested with 12 to 18 adults. After an incubation period of 6 days after infestation, samples were checked for mortality and special effects (e.g. phytotoxicity).

[2] = test system: Heliothis virescens (Tobacco Budworm); assay: Activity against Heliothis virescens (tobacco budworm), eggs on artificial diet; settings: eggs 0-24 h old, 4 days incubation, read-out: activity (egg mortality, larval mortality, growth regulation) against Heliothis virescens
Protocol: Activity Against Heliothis virescens (Tobacco Budworm)
Eggs (0-24 h old) are placed in 24-well microtiter plate on artificial diet and treated with test solutions by pipetting. After an incubation period of 4 days, samples are checked for egg mortality, larval mortality, and growth regulation.

[3] = test system: Frankliniellaoccidentalis (Western Flower Thrips); assay: Activity against Frankliniella occidentalis (western flower thrips), sunflower leaf disc spray test; settings: foliar, 168 h, mixed-age population, 7 days after treatment, read-out: activity (mortality and special effects) against Frankliniella occidentalis
Protocol: Activity Against Frankliniellaoccidentalis (Western Flower Thrips)
Sunflower leaf discs are placed on agar in a 24-well microtiter plate and sprayed with test solutions. After drying, the leaf discs are infested with a Frankliniella population of mixed ages. After an incubation period of 7 days after treatment, samples are checked for mortality and special effects (e.g. phytotoxicity).

[4] = test system: Myzus persicae (Green Peach Aphid); assay: Activity against Myzus persicae (green peach aphid), sunflower leaf disc spray test; settings: foliar, 144 h, 200 ppm, mixed-age aphid population, 6 days incubation, read-out: activity (mortality) against Myzus persicae
Description: Activity Against Myzus persicae (Green Peach Aphid)

Measured: mortality at 200 ppm

CO/N=C1\CCCc2ccc(-c3cnc(-c4cccnc4)s3)nc21 [Compound 1.002]
> 80%: all assays above

From patent US9133218B2, “Pesticidally active pyridyl- and pyrimidyl-substituted thiazole derivatives” (Syngenta Participations AG, priority 2012, dated 2015)
